The values that follow come from US7820759B2, “Micellar preparation containing sparingly water-soluble anticancer agent and novel block copolymer” (Nippon Kayaku Kabushiki Kaisha, priority 2003, dated 2010).

Data set [1] deals with mouse colon cancer Colon 26 cells. Briefly: In vivo antitumor effect against Colon 26. As to conditions: average tumor volume treated/untreated, 11 days after treatment, 30 mg/kg in terms of paclitaxel, tail vein, 5 consecutive days, female CDF1 mice. On the procedure: Female CDF1 mice were inoculated subcutaneously at the back thereof with the mouse colon cancer Colon 26 cells, and, from the point of time when the volume of tumor has reached around 100 mm^3, micellar preparation 10 according to the invention, the micellar composition from Comparative Example, or paclitaxel was administered through the tail veins of the mice for consecutive 5 days to examine effects against advanced cancer. Each agent was used directly, or after dilution with saline before use. The concentration of each agent was expressed in terms of paclitaxel. The antitumor effect of agent was judged on the basis of a percentage of the average tumor volume in treated group to the average tumor volume in untreated group (T/C %) 11 days after agent treatment.

Data set [2] can be described thus: Transition of paclitaxel concentrations in the rat plasma. It counts as in vivo. As to conditions: intravenous, 5 mg/kg paclitaxel equivalent, tail vein, male SD rats. As for the experimental part:
Micellar preparation 10 from Example 9 was diluted with normal saline solution to make an aqueous solution having a concentration of 2.5 mg/mL in terms of paclitaxel. Paclitaxel alone was dissolved in ethanol, to which Cremophor (Sigma) was then added in the same amount as ethanol to prepare in such a way that the concentration of paclitaxel was adjusted to 25 mg/mL, followed by dilution to 2.5 mg/mL with normal saline solution immediately before administration. Micellar preparation 10 or paclitaxel alone was administered in an amount equivalent to paclitaxel 5 mg/kg to male SD rats through their tail veins, followed by taking blood samples from their cervical veins with time. The plasma obtained by centrifugation was diluted with an appropriate amount of water and subjected to three rounds of extraction with t-butyl methyl ether. The ether layer was recovered, dried up, and then dissolved in 50 μL of actonitrile, followed by quantitating paclitaxel using HPLC.

For another data set, the system named is female CDF1 mice. Nature of the data set: Toxicity test against mouse extension reflex (peripheral nerve impairment). It counts as in vivo. Particulars: 30 mg/kg in terms of paclitaxel, tail vein, 5 consecutive days, hind limbs. As for the experimental part:
Micellar preparation 10 or paclitaxel alone was administered to female CDF1 mice through their tail veins for consecutive 5 days to observe the extension reflex of their hind limbs providing an indication of peripheral nerve impairment due to paclitaxel. Each agent was prepared as described in Test Example 1, and used directly, or after dilution with saline before use. The dosages used were expressed in terms of paclitaxel.

Where “and” joins values, the source holds several entries; their conditions need not be identical. Equal entries are not always repeated.

On to `CC(=O)O[C@H]1C(=O)[C@@]2(C)[C@H]([C@H](OC(=O)c3ccccc3)[C@]3(O)C[C@H](OC(=O)[C@H](O)[C@@H](NC(=O)c4ccccc4)c4ccccc4)C(C)=C1C3(C)C)[C@]1(OC(C)=O)CO[C@@H]1C[C@@H]2O` [Paclitaxel, paclitaxel], for which the “T/C (%)” value in data set [1] was 40.0% and 37.5%; in data set [1] (listed as paclitaxel alone), 37.5% and 40.0%. In addition, in data set [2] (read-out: AUC (0-360) (converted)), the AUC(0-t) was 1170 ng·h/mL. In data set [2] (blood drawing time 10 min), the concentration at 10 min worked out at 1050 ng/mL. Also, the concentration at 30 min in data set [2] (blood drawing time 30 min) worked out at 510 ng/mL. The concentration at 60 min in data set [2] (blood drawing time 60 min) came to 260 ng/mL. Also, the concentration at 120 min in data set [2] (blood drawing time 120 min) was found to be 100 ng/mL. The concentration at 360 min in data set [2] (blood drawing time 360 min) was 35 ng/mL. Besides, the entries for the “Mice showing extension reflex disappearance” value in the data set on female CDF1 mice and with female CDF1 mice (listed as paclitaxel alone) were 3/3 and “induced the disappearance of extension reflex in all mice”, respectively.
